Tests used:
Format in all cases: biochemical
VWF = molecular target: T1, VWF (Homo sapiens, UniProt P04275); test: Cleavage of VWF by endogenous ADAMTS13 in citrated pooled normal plasma, multimer pattern on agarose gel
T1 construct: Cleavage of VWF by ADAMTS13 in citrated pooled normal plasma; tissue Precision BioLogic; host or cells: citrated pooled normal plasma, diluted 10-fold
Protocol: Cleavage of VWF by ADAMTS13 in citrated pooled normal plasma was examined by incubating 10-fold diluted plasma at 37° C. for various times. Monoclonal ADAMTS13 antibody or control antibody (final concentration: 20 μg/ml) was added to an aliquot of the diluted plasma. ADAMTS13 cleavage was stopped at indicated times with EDTA.
(§1) The VWF multimer pattern was evaluated by 1.5% agarose gel electrophoresis followed by Western blotting with a HRP-conjugated polyclonal VWF antibody (Dako, Inc., Carpinteria, Calif.) previously described (Chen et al., J Clin Invest, Submitted (2010)).

[1] = molecular target: T2, short A2 (Met1473-Gly1674) (Homo sapiens, UniProt P04275); test: ADAMTS13 cleavage of recombinant VWF fragment short A2 (SDS-PAGE, western blotting); details: 1.5 M urea or 1.5 mg/ml ristocetin, 37° C., 5 hr (FIG. 4)
T2 construct: short A2 (Met1473-Gly1674); made in house; host or cells: HEK293 Tet-On cells
T2 sequence (P04275 1473-1674): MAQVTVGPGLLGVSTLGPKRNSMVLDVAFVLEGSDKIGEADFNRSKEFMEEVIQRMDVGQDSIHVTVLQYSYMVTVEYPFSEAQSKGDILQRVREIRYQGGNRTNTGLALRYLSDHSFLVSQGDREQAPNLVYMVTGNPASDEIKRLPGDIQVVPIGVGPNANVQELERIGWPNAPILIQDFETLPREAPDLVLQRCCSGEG
Description: (§2) Recombinant ADAMTS13 (Ala75-Thr1427) and VWF fragments A1A2A3 (Asp1261-Ile1878), long A2 (Asp1459-Gly1674), and short A2 (Met1473-Gly1674) were expressed as fusion proteins with the pNBioSec vector (Mize et al., Protein Expr Purif, 57(2):280-289 (2008)) in HEK293 Tet-On cells as previously described (Chen et al., Blood, 115(3):706-712 (2010)). In this expression system, recombinant proteins were secreted with dual tags: an N-terminal biotin-tag and a C-terminal protein C epitope tag. Serum-free-cell-culture medium containing the secreted recombinant proteins was concentrated 10-fold by centrifugation over an Ultra-10K filter and desalted over Sephadex G25.
(§3) Plasma VWF was purified from cryoprecipitate as described previously (Chen et al., Blood, 115(3):706-712 (2010)). Cleavage of recombinant VWF fragments by ADAMTS13 was carried out at 37° C. for 5 hours with or without modulators. The reactions were stopped by EDTA (final concentration 10 mM). Cleavage products were analyzed by electrophoresis in 4-15% gradient polyacrylamide gels (Bio-Rad Laboratories, Hercules, Calif.) after reduction. […]
(§4) Cleavage of recombinant VWF fragments (1 μg/ml) by ADAMTS13 (0.15 μg/ml) was carried out at 37° C. for 5 hours in the presence of either 1.5 M urea, or 1.5 mg/ml ristocetin. […] Cleavage products were analyzed by electrophoresis in 4-15% gradient polyacrylamide gels after reduction. […]

A1A2A3 (Asp1261-Ile1878) = molecular target: T3, A1A2A3 (Asp1261-Ile1878) (Homo sapiens, UniProt P04275); test: ADAMTS13 cleavage of recombinant VWF fragment A1A2A3 (SDS-PAGE, western blotting); details: for ADAMTS13 cleavage of A1A2A3: 37° C., 5 hr (FIG. 2)
T3 construct: VWF fragments A1A2A3 (Asp1261-Ile1878); made in house; host or cells: HEK293 Tet-On cells
T3 sequence (P04275 1261-1878, one chain of several): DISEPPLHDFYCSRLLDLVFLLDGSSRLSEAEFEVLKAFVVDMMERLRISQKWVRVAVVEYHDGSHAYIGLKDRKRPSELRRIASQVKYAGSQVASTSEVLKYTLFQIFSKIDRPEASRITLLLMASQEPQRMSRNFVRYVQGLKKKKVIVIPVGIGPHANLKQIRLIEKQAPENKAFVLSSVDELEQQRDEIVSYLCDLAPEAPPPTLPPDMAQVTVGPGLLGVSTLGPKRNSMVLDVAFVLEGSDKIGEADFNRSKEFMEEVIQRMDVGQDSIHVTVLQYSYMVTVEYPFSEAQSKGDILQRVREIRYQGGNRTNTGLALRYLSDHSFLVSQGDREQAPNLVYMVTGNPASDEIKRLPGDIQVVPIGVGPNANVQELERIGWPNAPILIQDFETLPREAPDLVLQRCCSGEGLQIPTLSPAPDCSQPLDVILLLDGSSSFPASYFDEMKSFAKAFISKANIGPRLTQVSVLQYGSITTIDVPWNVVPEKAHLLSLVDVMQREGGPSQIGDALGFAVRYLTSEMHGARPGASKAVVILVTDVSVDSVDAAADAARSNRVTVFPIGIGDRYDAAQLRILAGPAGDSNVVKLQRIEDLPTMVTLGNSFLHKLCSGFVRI
Description: as §2
(§5) Plasma VWF was purified from cryoprecipitate as described previously (Chen et al., Blood, 115(3):706-712 (2010)). Cleavage of recombinant VWF fragments by ADAMTS13 was carried out at 37° C. for 5 hours with or without modulators. The reactions were stopped by EDTA (final concentration 10 mM). Cleavage products were analyzed by electrophoresis in 4-15% gradient polyacrylamide gels (Bio-Rad Laboratories, Hercules, Calif.) after reduction. Cleavage products were transferred onto nitrocellulose membranes, blocked with 1% albumin in Tris-buffered saline with 0.05% Tween-20, probed with HRP-conjugated streptavidin (Thermal Scientific, Rockford, Ill.), and visualized with the Immobilon Western HRP substrate (Millipore).
(§6) Cleavage of recombinant VWF fragments (1 μg/ml) by ADAMTS13 (0.15 μg/ml) was carried out at 37° C. for 5 hours in the presence of either 1.5 M urea, or 1.5 mg/ml ristocetin. The reactions were stopped by EDTA. Cleavage products were analyzed by electrophoresis in 4-15% gradient polyacrylamide gels after reduction. Cleavage products were transferred onto nitrocellulose membranes, blocked with 1% albumin in Tris-buffered saline with 0.05% Tween-20, probed with HRP-conjugated streptavidin, and visualized with the Immobilon Western HRP substrate.

[2] = molecular target: T4, purified multimeric plasma VWF (Homo sapiens, UniProt P04275); test: ADAMTS13 cleavage of purified multimeric plasma VWF, multimer pattern on agarose gel; details: 0.75 and 1.0 mg/ml ristocetin, 37° C., under stasis (FIG. 1A)
T4 construct: Plasma VWF was purified from cryoprecipitate as described previously; from tissue; host or cells: plasma cryoprecipitate (VWF); HEK293 Tet-On cells (ADAMTS13)
T4 sequence (P04275 764-2813 limits assumed): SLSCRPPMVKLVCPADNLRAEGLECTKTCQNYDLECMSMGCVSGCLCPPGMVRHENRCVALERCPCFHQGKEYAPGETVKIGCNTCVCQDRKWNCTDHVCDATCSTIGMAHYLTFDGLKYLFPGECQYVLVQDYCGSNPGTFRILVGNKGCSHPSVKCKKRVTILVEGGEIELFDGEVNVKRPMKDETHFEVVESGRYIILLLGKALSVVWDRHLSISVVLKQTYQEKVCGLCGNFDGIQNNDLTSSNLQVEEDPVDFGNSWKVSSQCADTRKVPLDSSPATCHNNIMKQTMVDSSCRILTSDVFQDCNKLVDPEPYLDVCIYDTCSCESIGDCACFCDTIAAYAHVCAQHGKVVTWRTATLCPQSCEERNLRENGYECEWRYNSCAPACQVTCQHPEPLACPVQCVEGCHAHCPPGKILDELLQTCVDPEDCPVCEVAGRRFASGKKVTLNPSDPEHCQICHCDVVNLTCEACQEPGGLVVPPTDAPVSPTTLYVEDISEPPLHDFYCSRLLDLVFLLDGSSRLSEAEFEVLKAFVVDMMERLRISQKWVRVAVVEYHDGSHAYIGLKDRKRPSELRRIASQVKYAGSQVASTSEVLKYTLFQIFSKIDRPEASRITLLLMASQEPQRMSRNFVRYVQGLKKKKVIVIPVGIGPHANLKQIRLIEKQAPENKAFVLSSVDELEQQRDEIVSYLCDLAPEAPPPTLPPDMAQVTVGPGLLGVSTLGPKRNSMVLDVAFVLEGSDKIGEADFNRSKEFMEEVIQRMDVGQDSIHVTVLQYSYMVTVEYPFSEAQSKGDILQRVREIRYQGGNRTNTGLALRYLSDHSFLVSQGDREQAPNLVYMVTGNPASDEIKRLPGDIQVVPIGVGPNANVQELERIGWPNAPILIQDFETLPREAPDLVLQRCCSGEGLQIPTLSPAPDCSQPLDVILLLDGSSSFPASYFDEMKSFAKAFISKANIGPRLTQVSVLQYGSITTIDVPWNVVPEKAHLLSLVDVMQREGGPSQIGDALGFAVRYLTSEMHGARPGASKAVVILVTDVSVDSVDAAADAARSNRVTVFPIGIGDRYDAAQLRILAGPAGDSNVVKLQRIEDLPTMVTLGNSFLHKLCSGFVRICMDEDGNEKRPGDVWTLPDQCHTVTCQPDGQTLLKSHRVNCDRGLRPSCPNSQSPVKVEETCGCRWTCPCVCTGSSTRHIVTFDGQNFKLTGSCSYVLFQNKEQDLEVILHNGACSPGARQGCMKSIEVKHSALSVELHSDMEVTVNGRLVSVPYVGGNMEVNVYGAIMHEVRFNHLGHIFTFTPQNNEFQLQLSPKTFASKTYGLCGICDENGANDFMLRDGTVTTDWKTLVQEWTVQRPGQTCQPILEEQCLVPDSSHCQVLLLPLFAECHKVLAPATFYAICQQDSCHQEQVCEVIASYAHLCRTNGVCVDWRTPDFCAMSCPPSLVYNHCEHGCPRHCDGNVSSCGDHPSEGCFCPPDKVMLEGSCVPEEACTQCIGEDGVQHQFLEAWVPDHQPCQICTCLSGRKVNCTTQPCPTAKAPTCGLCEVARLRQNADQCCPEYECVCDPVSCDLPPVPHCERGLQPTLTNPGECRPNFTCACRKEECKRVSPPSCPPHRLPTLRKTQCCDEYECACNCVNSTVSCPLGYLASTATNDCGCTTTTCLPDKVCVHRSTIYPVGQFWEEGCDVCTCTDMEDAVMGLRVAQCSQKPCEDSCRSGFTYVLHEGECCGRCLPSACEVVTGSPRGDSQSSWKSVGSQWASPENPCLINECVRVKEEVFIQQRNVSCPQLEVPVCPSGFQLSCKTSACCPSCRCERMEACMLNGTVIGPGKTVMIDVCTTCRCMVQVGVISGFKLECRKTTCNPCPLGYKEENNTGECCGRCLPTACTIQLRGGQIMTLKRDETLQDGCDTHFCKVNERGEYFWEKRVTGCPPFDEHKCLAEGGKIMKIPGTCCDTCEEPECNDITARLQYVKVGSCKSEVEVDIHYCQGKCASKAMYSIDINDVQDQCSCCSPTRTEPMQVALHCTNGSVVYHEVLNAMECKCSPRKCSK
Protocol: Cleavage of purified VWF (2 μg/ml) by recombinant ADAMTS13 (0.4 μg/ml) was performed at 37° C. in the absence or presence of urea or ristocetin. The reactions were stopped at the indicated times with EDTA (final concentration 10 mM).
as §1

A1A2 fragment = test: ADAMTS13 cleavage of recombinant VWF fragment A1A2 (SDS-PAGE, western blotting)
Chain of A1A2 fragment (P04275 1261-1674 D1472H limits assumed): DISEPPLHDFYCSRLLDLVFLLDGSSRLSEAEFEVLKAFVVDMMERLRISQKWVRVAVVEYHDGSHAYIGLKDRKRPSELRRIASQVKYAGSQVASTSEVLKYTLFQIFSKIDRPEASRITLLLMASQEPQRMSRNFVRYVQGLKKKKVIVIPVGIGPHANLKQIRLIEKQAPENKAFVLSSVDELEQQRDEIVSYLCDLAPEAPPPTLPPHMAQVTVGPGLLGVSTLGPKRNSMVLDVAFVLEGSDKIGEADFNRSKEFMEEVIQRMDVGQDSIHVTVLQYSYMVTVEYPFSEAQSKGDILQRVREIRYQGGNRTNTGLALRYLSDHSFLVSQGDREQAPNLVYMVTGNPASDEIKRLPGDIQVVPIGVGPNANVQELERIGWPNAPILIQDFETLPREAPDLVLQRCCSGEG
Protocol: as §5, §6

Multimeric VWF = molecular target: T5, Multimeric VWF (Homo sapiens, UniProt P04275); test: Detection of methionine oxidation in VWF by mass spectrometry (HOCl-generating system MPO plus H2O2)
T5 construct: purified, multimeric VWF from plasma; from tissue
T5 sequence (P04275 764-2813 limits assumed): as the sequence (P04275 764-2813 limits assumed) above
Protocol: Multimeric VWF was incubated with an HOC1-generating system containing 25 nM MPO plus H2O2 at various concentrations in PBS (pH 7.4) at 37° C. for 1 hr in the presence or absence of 1.0 mg/ml ristocetin. The oxidation reaction was stopped by the addition of excess free methionine. The oxidized protein was digested with trypsin and the peptides analyzed by nano liquid chromatography-electrospray ionization-tandem mass spectrometry (nanoLC-ESI-MS/MS).

[3] = molecular target: T6, long A2 (Asp1459-Gly1674) (Homo sapiens, UniProt P04275, D1472H); test: ADAMTS13 cleavage of recombinant VWF fragment long A2 (SDS-PAGE, western blotting); details: in the presence of ristocetin, 37° C., 5 hr (FIG. 3)
T6 construct: long A2 (Asp1459-Gly1674); made in house; host or cells: HEK293 Tet-On cells
T6 sequence (P04275 1459-1674 D1472H): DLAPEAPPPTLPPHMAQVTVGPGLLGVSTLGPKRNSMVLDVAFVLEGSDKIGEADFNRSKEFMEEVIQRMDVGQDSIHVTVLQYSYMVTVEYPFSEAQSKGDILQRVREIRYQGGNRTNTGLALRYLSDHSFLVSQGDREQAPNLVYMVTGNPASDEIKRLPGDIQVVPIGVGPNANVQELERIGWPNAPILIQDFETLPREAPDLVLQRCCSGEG
Description: as §2, §3, §4

[4] = 1.0 mg/ml ristocetin versus buffer, 25 nM MPO plus H2O2, 1 hr (FIG. 6A)

T1 sequence (P04275 764-2813 limits assumed): as the sequence (P04275 764-2813 limits assumed) above

Compound: O=C(O)CN(CCN(CC(=O)O)CC(=O)O)CC(=O)O [EDTA]
- effect on proteolysis of VWF (VWF; antibody 20 μg/ml, EDTA 10 mM per methods): inhibited

Compound: NC(N)=O [urea]
- ADAMTS13 cleavage of short A2 (lacking Asp1459-His1472) [1]: cleaved it normally

Compound: CN[C@H](CC(C)C)C(=O)N[C@H]1C(=O)N[C@@H](CC(N)=O)C(=O)N[C@H]2C(=O)N[C@H]3C(=O)N[C@H](C(=O)N[C@H](C(=O)O)c4cc(O)cc(O)c4-c4cc3ccc4O)[C@H](O)c3ccc(c(Cl)c3)Oc3cc2cc(c3O[C@@H]2O[C@H](CO)[C@@H](O)[C@H](O)[C@H]2O[C@H]2C[C@](C)(N)[C@H](O)[C@H](C)O2)Oc2ccc(cc2Cl)[C@H]1O [vancomycin]
- ADAMTS13 cleavage of A1A2A3 (A1A2A3 (Asp1261-Ile1878)): not mimicked

Compound: ristocetin
- ADAMTS13 cleavage of A1A2A3 (A1A2A3 (Asp1261-Ile1878)): induced ADAMTS13 to cleave
- minimum ristocetin concentration producing maximum proteolysis (A1A2A3 (Asp1261-Ile1878); A1A2A3, 37° C., 5 hr, increasing concentrations (FIG. 2B)): approximately 0.8 mg/ml
- effect on ability of recombinant ADAMTS13 to cleave purified multimeric plasma VWF [2]: accelerated
- efficiency of enhancing ADAMTS13 cleavage, A1A2 fragment versus long A2 domain (A1A2 fragment; FIG. 3): more efficiently in the A1A2 fragment
- ADAMTS13 cleavage of A1A2 fragment (A1A2 fragment; in the presence of ristocetin, 37° C., 5 hr (FIG. 3)): able to cleave
- effect on ability of endogenous ADAMTS13 to cleave VWF in diluted plasma (VWF; 1.0 mg/ml ristocetin, 10-fold diluted plasma, 37° C., compared with 1.5 M urea (FIG. 1B)): enhanced
- ADAMTS13 cleavage of short A2 (lacking Asp1459-His1472) [1]: unable to cleave
- oxidation of Met1521 (methionine sulfoxide) in the A2 domain (Multimeric VWF; [4]): more oxidized
- oxidation of Met1606 (methionine sulfoxide) in the A2 domain (Multimeric VWF; [4]): more oxidized
- extent of methionine oxidation in the A1 domain (Multimeric VWF; ristocetin versus buffer, 25 nM MPO and 50 μM H2O2 (FIG. 6B)): much less than in the A2 domain
- ADAMTS13 cleavage of long A2 fragment [3]: able to cleave
